How the values were obtained:
HUVEC cells = assay: Apoptotic nuclei in HUVEC, H&E staining; type: cell-based, human; conditions: wortmannin 4 nM or LY294002 2 μM, 24 hours
Method: To determine whether PI3K antagonists enhance the activities of intrinsic cell death mechanisms induced by irradiation, apoptosis in HUVEC cells was studied following PI3K inhibition. HUVEC cells were treated with wortmannin (4 nM) or with LY294002 (2 μM) as described in Example 2. Cells were treated 30 minutes later with 3 Gy of ionizing radiation. Cultures were stained 24 hours later with hematoxylin and eosin (H&E) to reveal apoptotic nuclei. Stained cells were then examined by light microscopy. For each treatment group, four high power fields (40× objective) were examined, and both the number of cells with apoptotic nuclei and the total number of cells were determined. From these numbers, the percentage of apoptotic cells for each group was calculated.

[1] = system: GL261 tumor blood vessels; assay: Tumor vascular window model, vascular length density, GL261; type: in vivo, mouse
Method: Penicillin/streptomycin solution (200 μl; available from GIBCO™ Invitrogen Corporation of Carlsbad, Calif., United States of America) was injected into the hind limb of the mouse prior to preparation of the window chamber. The dorsal skin fold window chamber (Leunig et al., 1992) was prepared using a 3-gram plastic frame, which was applied to the skin of a test animal and remained attached for the duration of the study. To prepare a test animal for application of the plastic frame, the dorsal midline was found along the animal's back, and a clip was placed to hold the skin in position. […] Scanned slides were analyzed using IMAGE-PRO® software (Media Cybernetics, Silver Spring, Md., United States of America) as described below. […] Tumor blood vessels were quantified using IMAGE-PRO® software, which quantified the vascular length density of blood vessel within the microscopic field. The mean vascular length density and the standard error of the mean were calculated for each treatment group. The mean and 95% confidence intervals of vascular length density for each treatment group were calculated and variance was analyzed by the General Linear Models and Bonferroni t test. […] The mean vascular length densities of treatment group were determined at 0 hours, which was the time at which the radiation treatments were commenced. […]

Question: Which results are given for O=c1cc(N2CCOCC2)oc2c(-c3ccccc3)cccc12 [LY294002, 2-(4-Morpholinyl)-8-phenyl-4H-1-benzopyran-4-one]?
Answer: apoptotic nuclei, % of cells (HUVEC cells; HUVEC pretreated 30 minutes before 3 Gy): 16%; apoptotic cells (HUVEC cells; unirradiated HUVEC): 2%; mean vascular length density at 96 hours, % of 0 hour ([1]; 3 mg/Kg intraperitoneally 15 minutes prior to 3 Gy): 5%; mean vascular length density at 96 hours, % of 0 hour ([1]; 3 mg/Kg intraperitoneally, no radiation, p=0.41): 85%

— patent US20060084697A1, “Pi3k antagonists as radiosensitizers” (priority 2002, published 2006)
